From patent US11712434B2, “Compound having anti-cancer effect, and preparation method therefor and use thereof” (3D MEDICINES (BEIJING) CO., LTD., priority 2016, dated 2023)
pIC50: −log10 of the molar value.

Columns and labels:
Assay in all cases: Cell proliferation assay (Alamar Blue)
Assay type in all cases: cell-based
[1] = system: HT1080; settings: HT1080 tumor cell line, 6 days culture
Outline: (§1)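 Compounds were added 4 h after seeding and left on the cells for 6 days. Nine concentrations spanning 3.16-fold dilutions from a top of 100 or 30 μM were run in duplicate. Fluorescence after AlamarBlue gave inhibition rates, fitted for IC50.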

[2] = system: CCRF-CEM; settings: CCRF-CEM tumor cell line, 6 days culture
Outline: as §1

[3] = system: HEPG2; settings: HEPG2 liver cancer cell line, 6 days culture
Outline: as §1

[4] = system: NCI-H2170; settings: NCI-H2170 tumor cell line, 6 days culture
Outline: as §1

[5] = system: NCI-H526; settings: NCI-H526 tumor cell line, 6 days culture
Outline: as §1

[6] = system: JHH5; settings: JHH5 liver cancer cell line, 6 days culture
Outline: as §1

[7] = system: HuTu80; settings: HuTu80 tumor cell line, 6 days culture
Outline: as §1

[8] = system: DU145; settings: DU145 tumor cell line, 6 days culture
Outline: as §1

[9] = system: JHH2; settings: JHH2 liver cancer cell line, 6 days culture
Outline: as §1

[10] = system: NCI-H1703; settings: NCI-H1703 (lung cancer cells), 6 days culture
Outline: as §1

[11] = system: SNU354; settings: SNU354 liver cancer cell line, 6 days culture
Outline: as §1

[12] = system: HCCLM3; settings: HCCLM3 tumor cell line, 6 days culture
Outline: as §1

[13] = system: JHH1; settings: JHH1 liver cancer cell line, 6 days culture
Outline: as §1

[14] = system: Li-7; settings: Li-7 liver cancer cell line, 6 days culture
Outline: as §1

[15] = system: HUH7; settings: HUH7 liver cancer cell line, 6 days culture
Outline: as §1

[16] = system: MG63; settings: MG63 tumor cell line, 6 days culture
Outline: as §1

[17] = system: SK-HEP-1; settings: SK-HEP-1 liver cancer cell line, 6 days culture
Outline: as §1

[18] = system: MFM-223; settings: MFM-223 tumor cell line, 6 days culture
Outline: as §1

[19] = system: 22RV1; settings: 22RV1 tumor cell line, 6 days culture
Outline: as §1

[20] = system: JHH4; settings: JHH4 liver cancer cell line, 6 days culture
Outline: as §1

[21] = system: MDA-MB-435S; settings: MDA-MB-435S tumor cell line, 6 days culture
Outline: as §1

[22] = system: SNU182; settings: SNU182 liver cancer cell line, 6 days culture
Outline: as §1

[23] = system: SNU475; settings: SNU475 liver cancer cell line, 6 days culture
Outline: as §1

[24] = system: HT55; settings: HT55 tumor cell line, 6 days culture
Outline: as §1

[25] = system: SNU449; settings: SNU449 liver cancer cell line, 6 days culture
Outline: as §1

[26] = system: Hep3B2.1-7; settings: Hep3B2.1-7 liver cancer cell line, 6 days culture
Outline: as §1

Cc1ccc(F)c(NC(=O)Nc2ccc(-c3cccc4[nH]nc(NC(=O)C[C@H](N)C(=O)O)c34)cc2)c1 [Compound 10]
pIC50 ([1]; Homo sapiens, HT-1080, 144 h): 5.11 | pIC50 ([2]; Homo sapiens, 144 h): 5.26 | pIC50 ([3]; Homo sapiens, 144 h): 6.01 | pIC50 ([4]; Homo sapiens, 144 h): 5.37 | pIC50 ([5]; Homo sapiens, 144 h): 5.16 | pIC50 ([6]; 144 h): 4.87 | pIC50 ([7]; Homo sapiens, 144 h): 5.74 | pIC50 ([8]; Homo sapiens, DU-145, 144 h): 5.44 | pIC50 ([9]; JHH-2, 144 h): 4.43 | pIC50 ([10]; Homo sapiens, 144 h): 7.70 | pIC50 ([11]; Homo sapiens, SNU-354, 144 h): 5.48 | pIC50 ([12]; Homo sapiens, 144 h): 5.11 | pIC50 ([13]; 144 h): 4.84 | pIC50 ([14]; 144 h): 5.28 | pIC50 ([15]; Homo sapiens, Huh-7, 144 h): 5.65 | pIC50 ([16]; Homo sapiens, MG-63, 144 h): 5.71 | pIC50 ([17]; Homo sapiens, SK-HEP1, 144 h): 4.83 | pIC50 ([18]; Homo sapiens, 144 h): 5.58 | pIC50 ([19]; Homo sapiens, 144 h): 5.20 | pIC50 ([20]; JHH-4, 144 h): 4.84 | pIC50 ([21]; Homo sapiens, 144 h): 5.02 | pIC50 ([22]; Homo sapiens, SNU-182, 144 h): 4.66 | pIC50 ([23]; Homo sapiens, SNU-475, 144 h): 5.36 | pIC50 ([24]; Homo sapiens, 144 h): 4.73 | pIC50 ([25]; Homo sapiens, SNU-449, 144 h): 4.86 | pIC50 ([26]; 144 h): 5.61

Cc1ccc(F)c(NC(=O)Nc2ccc(-c3cccc4[nH]nc(NC(=O)CCCCCNC(=O)C[C@H](N)C(=O)O)c34)cc2)c1 [Compound 11]
pIC50 [1]: < 4.00 | pIC50 [2]: < 4.00 | pIC50 [3]: 4.52 | pIC50 [4]: < 4.00 | pIC50 [5]: < 4.00 | pIC50 [6]: < 4.00 | pIC50 [7]: 4.20 | pIC50 [8]: < 4.00 | pIC50 [9]: < 4.00 | pIC50 [10]: 6.08 | pIC50 [11]: < 4.00 | pIC50 [12]: < 4.00 | pIC50 [13]: < 4.00 | pIC50 [14]: < 4.00 | pIC50 [15]: < 4.00 | pIC50 [16]: < 4.00 | pIC50 [17]: < 4.00 | pIC50 [18]: < 4.00 | pIC50 [19]: < 4.00 | pIC50 [20]: < 4.00 | pIC50 [21]: < 4.00 | pIC50 [22]: < 4.00 | pIC50 [23]: < 4.00 | pIC50 [24]: < 4.00 | pIC50 [25]: < 4.00 | pIC50 [26]: < 4.00

Cc1ccc(F)c(NC(=O)Nc2ccc(-c3cccc4[nH]nc(NC(=O)CCCCCCCCCCCNC(=O)C[C@H](N)C(=O)O)c34)cc2)c1 [Compound 12]
pIC50 [1]: < 4.00 | pIC50 [2]: < 4.00 | pIC50 [3]: 5.03 | pIC50 [4]: 4.23 | pIC50 [5]: < 4.00 | pIC50 [6]: < 4.00 | pIC50 [7]: 4.35 | pIC50 [8]: 4.08 | pIC50 [9]: < 4.00 | pIC50 [10]: 6.60 | pIC50 [11]: 4.01 | pIC50 [12]: < 4.00 | pIC50 [13]: < 4.00 | pIC50 [14]: 4.04 | pIC50 [15]: 4.39 | pIC50 [16]: < 4.00 | pIC50 [17]: < 4.00 | pIC50 [18]: 4.27 | pIC50 [19]: 4.02 | pIC50 [20]: < 4.00 | pIC50 [21]: < 4.00 | pIC50 [22]: < 4.00 | pIC50 [23]: < 4.00 | pIC50 [24]: < 4.00 | pIC50 [25]: < 4.00 | pIC50 [26]: 4.10
